Assay: Isometric squat rate of force development (RFD)
Type: in vivo, human
Set-up: RFD50 ms / RFD50 ms Δ / RFD100 ms / RFD100 ms Δ / RFD200 ms / RFD200 ms Δ / RFD30 ms / RFD30 ms Δ: unit not given here
Settings: for RFD30 ms Δ / RFD30 ms Δ (%) / RFD50 ms Δ / RFD50 ms Δ (%) / RFD100 ms Δ / RFD100 ms Δ (%) / RFD200 ms Δ / RFD200 ms Δ (%): baseline to W 8; for RFD30 ms ES (d) / RFD50 ms ES (d) / RFD100 ms ES (d) / RFD200 ms ES (d): effect size
Protocol: Isometric and isokinetic squats were performed using a mechanized squat device (Exerbotics eSq, Tulsa, Okla., USA) (31, 32). At the first assessment, each participant's preferred foot positioning was determined using a custom grid overlaid on the foot platform of the squat device. This foot positioning was recorded and utilized for all visits. No weight belts, knee wraps, or other aids were utilized during testing. Prior to testing, the participant's range of motion for isokinetic testing was determined. The range of motion was set to 90° between the thigh and lower leg at the bottom of the repetition and approximately 170° at the top of the repetition, as determined by a goniometer. The isometric testing included maximal effort pushes at 120° and 150° knee angles. Each participant was instructed to push against the device as hard and fast as possible while attempting to complete a squat movement. Two isometric pushes were performed at each knee angle, and each effort lasted approximately 2 to 3 seconds. After the isometric testing, a 3-repetition maximum isokinetic force production test was completed. Prior to testing, participants observed the movement of the machine and received verbal instruction regarding proper performance of the assessment. Each of the repetitions during the maximal isokinetic force production test consisted of a 4-second eccentric phase, followed by an approximately half-second pause at the 90° knee position and a 4-second concentric phase. During testing, the force signal was sampled from the load cell at 1 kHz (MP100; Biopac Systems, Inc, Santa Barbara, Calif., USA), stored on a personal computer, and processed off-line using custom-written software (LabVIEW, Version 11.0; National Instruments, Austin, Tex., USA). The scaled force signal was low-pass filtered, with a 10-Hz cutoff (zero-phase lag, fourth-order Butterworth filter). All subsequent analyses were conducted on the scaled and filtered force signal. For the isometric force production tests, the rate of force development (RFD) over specific time intervals (i.e. 30, 50, 100 and 200 ms) was calculated by manually specifying the onset of force production within the custom LabVIEW program. For each repetition of the maximum isokinetic force production test, isokinetic peak forces (PF) were determined as the highest mean 25-ms epoch for both concentric and eccentric testing (i.e. PFCONC and PFECC).

## CC(C)(O)CC(=O)O [TRFHMB, β-hydroxy-β-methylbutyrate]
ITT, knee angle 120°, Baseline
  RFD30 ms: 1638 ± 411
  RFD50 ms: 2017 ± 472
  RFD100 ms: 2621 ± 719
  RFD200 ms: 3661 ± 503
ITT, knee angle 120°, W 4
  RFD30 ms: 2131 ± 457
  RFD50 ms: 2760 ± 506
  RFD100 ms: 3451 ± 759
  RFD200 ms: 4121 ± 475
ITT, knee angle 120°, W 8
  RFD30 ms: 2606 ± 494
  RFD50 ms: 3153 ± 510
  RFD100 ms: 4205 ± 774
  RFD200 ms: 4332 ± 472
ITT, knee angle 120°
  RFD30 ms Δ: 969
  RFD30 ms Δ (%): 59%
  RFD50 ms Δ: 1135
  RFD50 ms Δ (%): 56%
  RFD100 ms Δ: 1585
  RFD100 ms Δ (%): 60%
  RFD200 ms Δ: 671
  RFD200 ms Δ (%): 18%
  RFD30 ms ES (d): 0.59
  RFD50 ms ES (d): 0.64
  RFD100 ms ES (d): 0.59
  RFD200 ms ES (d): 0.38
ITT, knee angle 150°, Baseline
  RFD30 ms: 1922 ± 471
  RFD50 ms: 2203 ± 703
  RFD100 ms: 2694 ± 825
  RFD200 ms: 3163 ± 491
ITT, knee angle 150°, W 4
  RFD30 ms: 2612 ± 420
  RFD50 ms: 2989 ± 482
  RFD100 ms: 3567 ± 750
  RFD200 ms: 3511 ± 447
ITT, knee angle 150°, W 8
  RFD30 ms: 2851 ± 469
  RFD50 ms: 3208 ± 468
  RFD100 ms: 3944 ± 754
  RFD200 ms: 3876 ± 443
ITT, knee angle 150°
  RFD30 ms Δ: 929
  RFD30 ms Δ (%): 48%
  RFD50 ms Δ: 1004
  RFD50 ms Δ (%): 46%
  RFD100 ms Δ: 1251
  RFD100 ms Δ (%): 46%
  RFD200 ms Δ: 713
  RFD200 ms Δ (%): 23%
  RFD30 ms ES (d): 0.53
  RFD50 ms ES (d): 0.45
  RFD100 ms ES (d): 0.42
  RFD200 ms ES (d): 0.41
PP, knee angle 120°, Baseline
  RFD30 ms: 1669 ± 662
  RFD50 ms: 2016 ± 758
  RFD100 ms: 2642 ± 1153
  RFD200 ms: 4079 ± 688
PP, knee angle 120°, W 4
  RFD30 ms: 2267 ± 723
  RFD50 ms: 3028 ± 787
  RFD100 ms: 3845 ± 1195
  RFD200 ms: 4636 ± 648
PP, knee angle 120°, W 8
  RFD30 ms: 2917 ± 675
  RFD50 ms: 3470 ± 675
  RFD100 ms: 4629 ± 1111
  RFD200 ms: 4824 ± 569
PP, knee angle 120°
  RFD30 ms Δ: 1248
  RFD30 ms Δ (%): 75%
  RFD50 ms Δ: 1454
  RFD50 ms Δ (%): 72%
  RFD100 ms Δ: 1987
  RFD100 ms Δ (%): 75%
  RFD200 ms Δ: 745
  RFD200 ms Δ (%): 18%
  RFD30 ms ES (d): 0.71
  RFD50 ms ES (d): 0.77
  RFD100 ms ES (d): 0.66
  RFD200 ms ES (d): 0.45
PP, knee angle 150°, Baseline
  RFD30 ms: 2121 ± 770
  RFD50 ms: 2420 ± 1187
  RFD100 ms: 3072 ± 1377
  RFD200 ms: 3441 ± 708
PP, knee angle 150°, W 4
  RFD30 ms: 2845 ± 625
  RFD50 ms: 3274 ± 715
  RFD100 ms: 3940 ± 1178
  RFD200 ms: 3613 ± 634
PP, knee angle 150°, W 8
  RFD30 ms: 3177 ± 622
  RFD50 ms: 3572 ± 604
  RFD100 ms: 4346 ± 1070
  RFD200 ms: 4237 ± 558
PP, knee angle 150°
  RFD30 ms Δ: 1056
  RFD30 ms Δ (%): 50%
  RFD50 ms Δ: 1152
  RFD50 ms Δ (%): 48%
  RFD100 ms Δ: 1274
  RFD100 ms Δ (%): 41%
  RFD200 ms Δ: 796
  RFD200 ms Δ (%): 23%
  RFD30 ms ES (d): 0.57
  RFD50 ms ES (d): 0.46
  RFD100 ms ES (d): 0.39
  RFD200 ms ES (d): 0.47
